This is an account of results in US20190045784A1 (priority 2016, published 2019).

Where two headings read alike, the source gives them in different places.

Format in all cases: cell-based
What all share (conditions): 7 days after inoculation

One test deals with Alternaria solani. The test can be described thus: Activity against early blight caused by Alternaria solani (Alteso), microtiter test.
A further test deals with Phytophthora infestans.
A further test relates to Botrytis cinerea. The test can be described thus: Activity against the grey mold Botrytis cinerea in the microtiter plate test (Botrci).
The next test has as its system Septoria tritici. The experiment in a line: Activity against leaf blotch on wheat caused by Septoria tritici (Septtr), microtiter test.

On to `Nc1nc(OCc2ccc(F)cc2)ncc1F` [No. I-4, 5-fluoro-2-(4-fluorophenylmethoxy)pyrimidin-4 amine], for which the Observed efficacy in the test on Alternaria solani (1 ppm) is recorded as 0%.
Consider `Cn1cc(C(=O)Nc2ccccc2-c2cc(F)c(F)c(F)c2)c(C(F)F)n1` [Fluxapyroxad, fluxapyroxad], for which the Observed efficacy in the test on Phytophthora infestans (0.016 ppm) is 2%; with Phytophthora infestans (0.063 ppm) it was 18%; in the test on Alternaria solani (0.00025 ppm) it was 7%; in the test with Alternaria solani (0.004 ppm), 31%; in the test on Alternaria solani (0.016 ppm) it was 69%; with Botrytis cinerea (0.016 ppm), 0%. Further, the Observed efficacy in the test with Septoria tritici (0.000063 ppm) is 1%; with Septoria tritici (0.001 ppm) it was 7%; in the test on Septoria tritici (0.004 ppm), 9%; in the test on Septoria tritici (0.016 ppm), 17%.
With `Cn1c(=O)c2sc3c(=O)n(C)c(=O)c3sc2c1=O` [No. I-2, 2,6-dimethyl-1H,5H-[1,4]dithiino[2,3-c:5,6-c′]dipyrrole-1,3,5,7(2H,6H)-tetraone], the Observed efficacy is 0% in the test with Phytophthora infestans (0.25 ppm), 28% with Phytophthora infestans (1 ppm), 14% in the test with Alternaria solani (0.25 ppm) and 35% in the test on Septoria tritici (0.063 ppm).
Consider `Cc1ccc(COc2ncc(F)c(N)n2)cc1` [No. I-5, 5-fluoro-2-(p-tolylmethoxy)pyrimidin-4-amine], for which the Observed efficacy in the test on Phytophthora infestans (16 ppm) was found to be 14%; in the test with Botrytis cinerea (16 ppm) it was 24%.
